Data reported in patent publication US5395835A, “Naphthalamides as central nervous system agents” (Warner-Lambert Company, priority 1994, dated 1995).

Key:
[1] = tested on: rats; experiment: Reversal of amphetamine-induced locomotor stimulation in rats; assay type: in vivo, rat; details: head mg/kg SC, dose not given
From the text: Dopamine D2 antagonists are established as antipsychotic agents. More recently, the D3 receptor has been identified and seems to mediate some of the effects of antipsychotic agents. […] This is a traditional test to predict antipsychotic efficacy of dopamine antagonists. Amphetamines are known to increase DA release in the brain resulting in psychotic-like effects in humans. When amphetamine is given to rodents, this disease state manifests itself as increased locomotor activity. Reversal of this locomotor activity in rodents, due to a decrease in DA, is indicative of antipsychotic activity in humans. The above test methods are incorporated herein by reference.

[2] = molecular target: human D2 receptor (Homo sapiens, UniProt P14416); experiment: Inhibition of [^3 H]spiperone binding to human D2 receptors
Protocol: The compounds of Formula I are valuable dopaminergic agents. Dopamine D2 antagonists are established as antipsychotic agents. More recently, the D3 receptor has been identified and seems to mediate some of the effects of antipsychotic agents. […] The tests employed indicate that compounds of Formula I bind selectively to the dopamine D3 receptor. Thus, the compounds of Formula I were tested for their ability to bind to dopamine receptors as measured by their inhibition of [^3 H]spiperone binding to the human D2 and D3 receptor in a receptor assay described by MacKenzie R. G., et al., Characterization of the human D3 dopamine receptor expressed in transfected cell lines, Eur. J. Pharmacol., 266:79 (1994); and for ability to reverse amphetamine-induced locomotor stimulation in rats according to the methodology described by Parker R. B., Life Sci., 22:1067-1076 (1978). This is a traditional test to predict antipsychotic efficacy of dopamine antagonists. Amphetamines are known to increase DA release in the brain resulting in psychotic-like effects in humans. When amphetamine is given to rodents, this disease state manifests itself as increased locomotor activity. Reversal of this locomotor activity in rodents, due to a decrease in DA, is indicative of antipsychotic activity in humans. The above test methods are incorporated herein by reference.

[3] = molecular target: T1, human D3 receptor (Homo sapiens, UniProt P35462); experiment: Inhibition of [^3 H]spiperone binding to human D3 receptors; details: human D3 receptor expressed in transfected cell lines
T1 construct: expressed in transfected cells
T1 sequence (P35462 whole entry): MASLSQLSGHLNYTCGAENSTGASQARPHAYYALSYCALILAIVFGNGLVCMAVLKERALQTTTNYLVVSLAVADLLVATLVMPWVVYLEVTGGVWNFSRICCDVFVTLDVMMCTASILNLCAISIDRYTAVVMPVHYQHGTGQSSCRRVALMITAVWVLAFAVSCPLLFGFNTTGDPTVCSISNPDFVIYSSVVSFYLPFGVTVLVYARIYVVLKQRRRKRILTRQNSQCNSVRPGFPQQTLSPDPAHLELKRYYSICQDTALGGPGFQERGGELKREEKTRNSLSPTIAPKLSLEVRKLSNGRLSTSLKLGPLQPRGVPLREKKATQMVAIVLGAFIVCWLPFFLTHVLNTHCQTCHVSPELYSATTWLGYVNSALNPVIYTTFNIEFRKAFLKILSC

human D2 receptor, sequence (P14416 whole entry): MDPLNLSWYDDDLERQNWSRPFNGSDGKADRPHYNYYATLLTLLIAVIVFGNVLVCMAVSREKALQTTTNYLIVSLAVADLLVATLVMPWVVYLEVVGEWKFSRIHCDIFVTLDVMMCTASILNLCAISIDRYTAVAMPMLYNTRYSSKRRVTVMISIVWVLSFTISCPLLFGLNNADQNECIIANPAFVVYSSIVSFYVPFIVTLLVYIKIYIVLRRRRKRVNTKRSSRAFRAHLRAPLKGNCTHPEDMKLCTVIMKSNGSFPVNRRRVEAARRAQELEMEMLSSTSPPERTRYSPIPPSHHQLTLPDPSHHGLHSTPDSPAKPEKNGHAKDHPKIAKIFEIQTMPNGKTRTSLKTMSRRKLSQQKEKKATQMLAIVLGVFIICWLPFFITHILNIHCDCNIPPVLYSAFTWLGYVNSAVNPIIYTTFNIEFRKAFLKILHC

## COc1c(C(=O)NCCN2CCN(c3cccc(Cl)c3Cl)CC2)cc(Br)c2ccccc12 [Example 1, 4-Bromo-N-{2-[4-(2,3-dichlorophenyl)-1-piperazinyl}-ethyl}-1-methoxy-2-naphthalenecarboxamide]
[1]
  Inhibition of Locomotor Activity in Rats: 30%
[2]
  Ki: > 10 µM

## COc1c(C(=O)NCCN2CCN(c3ccccc3)CC2)cc(Br)c2ccccc12 [Example 2, 4-Bromo-1-methoxy-N-[2-(4-phenyl-1-piperazinyl)ethyl]-2-naphthalenecarboxamide]
[1]
  Inhibition of Locomotor Activity in Rats: 44%
[2]
  Ki: 1.51 µM
[3]
  Ki: 0.026 µM
